Results: patent US6706663B2, “Herbicidal 3-heterocyclic substituted benzisothiazole and benzisoxazole compounds” (Wyeth, priority 2000, dated 2004)

Columns and labels:
[1] = test system: ECHCG (Echinochloa crus-galli); assay: Preemergence herbicidal evaluation; type: in vivo, (L.) Beau; details: preemergence, rated 4-5 weeks after treatment
In short: (§1)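 Steps: mix seeds with potting soil; plant on ~1 inch soil per cup; spray compound in aqueous acetone; hold on greenhouse benches with routine watering; rate 0–9 visually against control at 4–5 weeks.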

[2] = test system: ECHCG (Echinochloa crus-galli); assay: Postemergence herbicidal evaluation; type: in vivo, (L.) Beau; details: postemergence
In short: (§2)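 Visual 0–9 injury scores versus control plants, covering stand, vigour, malformation, size, chlorosis and general appearance, taken four to five weeks post-spray and averaged over replicate tests. Plants were sprayed at roughly two weeks old and held on greenhouse benches.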

[3] = test system: TRZAWR (Wheat, Winter, cv Riband); assay: Postemergence herbicidal evaluation; type: in vivo, Triticum aestivum; details: postemergence
In short: as §2

[4] = test system: CHEAL (Chenopodium album); assay: Postemergence herbicidal evaluation; type: in vivo, L.; details: postemergence
In short: as §2

[5] = test system: AMBEL (Ambrosia artemisifolia); assay: Postemergence herbicidal evaluation; type: in vivo, L.; details: postemergence
In short: as §2

[6] = test system: CASOB (Cassia obtusifolia); assay: Postemergence herbicidal evaluation; type: in vivo, L.; details: postemergence
In short: as §2

ZEAMX (Corn, Field) [7] = assay: Postemergence herbicidal evaluation; type: in vivo, Zea mays, L.; details: postemergence
In short: as §2

[8] = test system: ECHORC (Echinochloa oryzoides); assay: Flooded paddy, preemergence weed control; type: in vivo, Echinochloa oryzoides (Ard.) Fritsch.; details: rated 3-4 weeks after treatment, 0-9 rating scale
In short: (§3)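 Seeds or propagules were planted in the top 0.5 cm of silt loam soil and kept flooded 1.5–3 cm above the surface throughout, then held in the greenhouse. Injury was rated visually on a 0–9 scale against untreated controls, covering stand, vigor, malformation, size and chlorosis.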

[9] = test system: MOOVA (Monochoria vaginalis); assay: Flooded paddy, preemergence weed control; type: in vivo, Presl.; details: rated 3-4 weeks after treatment, 0-9 rating scale
In short: as §3

GLXMA (Soybean) = assay: Preemergence herbicidal evaluation; type: in vivo, Glycine max, (L.) Merr.; details: preemergence, rated 4-5 weeks after treatment
CYPIR (Cyperus iria) = assay: Flooded paddy, preemergence weed control; type: in vivo; details: rated 3-4 weeks after treatment, 0-9 rating scale
In short: as §3

[10] = test system: AMBEL (Ambrosia artemisifolia); assay: Preemergence herbicidal evaluation; type: in vivo, L.; details: preemergence, rated 4-5 weeks after treatment
In short: as §1

ZEAMX (Corn, Field) [11] = assay: Preemergence herbicidal evaluation; type: in vivo, Zea mays, L.; details: preemergence, rated 4-5 weeks after treatment
GALAP (Galium aparine) [12] = assay: Postemergence herbicidal evaluation; type: in vivo; details: postemergence
In short: as §2

ORYSAT (Rice, Tebonnet) [13] = assay: Flooded paddy, post-transplant rice tolerance; type: in vivo, Oryza sativa, (L.) Tebonnet; details: flooded paddy, post-transplant rice, rated 3-4 weeks after treatment, 0-9 rating scale
In short: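 Visual 0-9 rating against a control, covering stand, vigor, malformation, size, chlorosis and overall appearance. Treatment was applied after transplanting paired ten-day-old seedlings into flooded silt loam, with water kept 1.5 to 3 cm deep on greenhouse benches.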

[14] = test system: GLXMAW (Soybean, Williams); assay: Postemergence herbicidal evaluation; type: in vivo, Glycine max, (L.) Merr. cv Williams; details: postemergence
In short: as §2

ORYSAT (Rice, Tebonnet) [15] = assay: Postemergence herbicidal evaluation; type: in vivo, Oryza sativa, (L.) Tebonnet; details: postemergence
In short: as §2

[16] = test system: IPOHE (Ipomoea hederacea); assay: Postemergence herbicidal evaluation; type: in vivo, (L.) Jacq.; details: postemergence
In short: as §2

[17] = test system: SAGPY (Sagittaria pygmaea); assay: Flooded paddy, preemergence weed control; type: in vivo, L.; details: rated 3-4 weeks after treatment, 0-9 rating scale
In short: as §3

GALAP (Galium aparine) [18] = assay: Preemergence herbicidal evaluation; type: in vivo; details: preemergence, rated 4-5 weeks after treatment
In short: as §1

[19] = test system: IPOHE (Ipomoea hederacea); assay: Preemergence herbicidal evaluation; type: in vivo, (L.) Jacq.; details: preemergence, rated 4-5 weeks after treatment
[20] = test system: ABUTH (Abutilon theophrasti); assay: Postemergence herbicidal evaluation; type: in vivo, Medic.; details: postemergence
In short: as §2

[21] = test system: ABUTH (Abutilon theophrasti); assay: Preemergence herbicidal evaluation; type: in vivo, Medic.; details: preemergence, rated 4-5 weeks after treatment

Compound: Cn1c(C(F)(F)F)cc(=O)n(-c2ccc3snc(-c4nc5ccccc5[nH]c4=O)c3c2)c1=O [Compound 90, 3-[3-(3,4-dihydro-3-oxo-2-quinoxalinyl)-1,2-benzisothiazol-5-yl]-1-methyl-6-(trifluoromethyl)uracil]
- Preemergence herbicidal rating ECHCG ([1]; rate 0.0620 kg/ha): 0.0
- Preemergence herbicidal rating ECHCG ([1]; rate 0.1250 kg/ha): 0.0
- Preemergence herbicidal rating ECHCG ([1]; rate 0.2500 kg/ha): 1.0
- ECHCG herbicidal rating ([2]; rate 0.0320 kg/ha): 2.0
- ECHCG herbicidal rating ([2]; rate 0.0620 kg/ha): 3.0
- ECHCG herbicidal rating ([2]; rate 0.1250 kg/ha): 4.0
- TRZAWR herbicidal rating ([3]; rate 0.0320 kg/ha): 2.8
- TRZAWR herbicidal rating ([3]; rate 0.0620 kg/ha): 2.8
- TRZAWR herbicidal rating ([3]; rate 0.1250 kg/ha): 2.0
- CHEAL herbicidal rating ([4]; rate 0.0320 kg/ha): 9.0
- CHEAL herbicidal rating ([4]; rate 0.0620 kg/ha): 9.0
- CHEAL herbicidal rating ([4]; rate 0.1250 kg/ha): 9.0
- AMBEL herbicidal rating ([5]; rate 0.0320 kg/ha): 6.5
- AMBEL herbicidal rating ([5]; rate 0.0620 kg/ha): 6.5
- AMBEL herbicidal rating ([5]; rate 0.1250 kg/ha): 9.0
- CASOB herbicidal rating ([6]; rate 0.0320 kg/ha): 5.0
- CASOB herbicidal rating ([6]; rate 0.0620 kg/ha): 5.0
- CASOB herbicidal rating ([6]; rate 0.1250 kg/ha): 5.0
- ZEAMX herbicidal rating (ZEAMX (Corn, Field) [7]; rate 0.0320 kg/ha): 3.3
- ZEAMX herbicidal rating (ZEAMX (Corn, Field) [7]; rate 0.0620 kg/ha): 3.3
- ZEAMX herbicidal rating (ZEAMX (Corn, Field) [7]; rate 0.1250 kg/ha): 2.5
- ECHORC herbicidal rating ([8]; rate 0.0320 kg/ha): 0.0
- ECHORC herbicidal rating ([8]; rate 0.1250 kg/ha): 0.0
- MOOVA herbicidal rating ([9]; rate 0.0320 kg/ha): 0.0
- MOOVA herbicidal rating ([9]; rate 0.1250 kg/ha): 0.0
- Preemergence herbicidal rating GLXMA (GLXMA (Soybean); rate 0.0620 kg/ha): 0.0
- Preemergence herbicidal rating GLXMA (GLXMA (Soybean); rate 0.1250 kg/ha): 0.0
- Preemergence herbicidal rating GLXMA (GLXMA (Soybean); rate 0.2500 kg/ha): 0.0
- CYPIR herbicidal rating (CYPIR (Cyperus iria); rate 0.0320 kg/ha): 0.0
- CYPIR herbicidal rating (CYPIR (Cyperus iria); rate 0.1250 kg/ha): 0.0
- Preemergence herbicidal rating AMBEL ([10]; rate 0.0620 kg/ha): 0.0
- Preemergence herbicidal rating AMBEL ([10]; rate 0.1250 kg/ha): 1.5
- Preemergence herbicidal rating AMBEL ([10]; rate 0.2500 kg/ha): 3.5
- Preemergence herbicidal rating ZEAMX (ZEAMX (Corn, Field) [11]; rate 0.0620 kg/ha): 0.0
- Preemergence herbicidal rating ZEAMX (ZEAMX (Corn, Field) [11]; rate 0.1250 kg/ha): 0.0
- Preemergence herbicidal rating ZEAMX (ZEAMX (Corn, Field) [11]; rate 0.2500 kg/ha): 0.0
- GALAP herbicidal rating (GALAP (Galium aparine) [12]; rate 0.0320 kg/ha): 4.0
- GALAP herbicidal rating (GALAP (Galium aparine) [12]; rate 0.0620 kg/ha): 4.0
- GALAP herbicidal rating (GALAP (Galium aparine) [12]; rate 0.1250 kg/ha): 5.0
- ORYSAT herbicidal rating (transplanted rice tolerance) (ORYSAT (Rice, Tebonnet) [13]; rate 0.0320 kg/ha): 0.0
- ORYSAT herbicidal rating (transplanted rice tolerance) (ORYSAT (Rice, Tebonnet) [13]; rate 0.1250 kg/ha): 0.0
- GLXMAW herbicidal rating ([14]; rate 0.0320 kg/ha): 6.0
- GLXMAW herbicidal rating ([14]; rate 0.0620 kg/ha): 6.3
- GLXMAW herbicidal rating ([14]; rate 0.1250 kg/ha): 6.5
- ORYSAT herbicidal rating (ORYSAT (Rice, Tebonnet) [15]; rate 0.0320 kg/ha): 2.0
- ORYSAT herbicidal rating (ORYSAT (Rice, Tebonnet) [15]; rate 0.0620 kg/ha): 2.5
- ORYSAT herbicidal rating (ORYSAT (Rice, Tebonnet) [15]; rate 0.1250 kg/ha): 2.0
- IPOHE herbicidal rating ([16]; rate 0.0320 kg/ha): 6.5
- IPOHE herbicidal rating ([16]; rate 0.0620 kg/ha): 8.0
- IPOHE herbicidal rating ([16]; rate 0.1250 kg/ha): 9.0
- SAGPY herbicidal rating ([17]; rate 0.0320 kg/ha): 0.0
- SAGPY herbicidal rating ([17]; rate 0.1250 kg/ha): 0.0
- Preemergence herbicidal rating GALAP (GALAP (Galium aparine) [18]; rate 0.0620 kg/ha): 0.0
- Preemergence herbicidal rating GALAP (GALAP (Galium aparine) [18]; rate 0.1250 kg/ha): 0.0
- Preemergence herbicidal rating GALAP (GALAP (Galium aparine) [18]; rate 0.2500 kg/ha): 3.0
- Preemergence herbicidal rating IPOHE ([19]; rate 0.0620 kg/ha): 0.0
- Preemergence herbicidal rating IPOHE ([19]; rate 0.1250 kg/ha): 0.0
- Preemergence herbicidal rating IPOHE ([19]; rate 0.2500 kg/ha): 1.5
- ABUTH herbicidal rating ([20]; rate 0.0320 kg/ha): 7.5
- ABUTH herbicidal rating ([20]; rate 0.0620 kg/ha): 7.5
- ABUTH herbicidal rating ([20]; rate 0.1250 kg/ha): 9.0
- Preemergence herbicidal rating ABUTH ([21]; rate 0.0620 kg/ha): 0.0
- Preemergence herbicidal rating ABUTH ([21]; rate 0.1250 kg/ha): 3.5
- Preemergence herbicidal rating ABUTH ([21]; rate 0.2500 kg/ha): 9.0
